system: Mus musculus; assay: Recovery of TH-immunostaining in […]-treated mice by post-MPTP treatment at a peroral dose of 10 mg/kg; assay type: functional, organism-based; design: dose 10 mg/kg

Row | Structure (SMILES) | Recovery
1 | CCC(C)(C)C(=O)C(=O)N1CCC[C@H]1C(=O)OCCCc1cccnc1 | 40%
2 | O=C(NCCCc1ccccc1)[C@@H]1CCCN1C(=O)NCc1ccccc1 | 31%
3 | O=C(NCCCCc1ccccc1)[C@@H]1CCCCN1C(=O)NCc1ccccc1 | 42%
4 | O=C(NCCCCc1ccccc1)[C@@H]1CCCCN1S(=O)(=O)Cc1ccccc1 | 37%
5 | O=C(NCCCc1ccccc1)[C@@H]1CCCN1S(=O)(=O)Cc1ccccc1 | 17%

target: Peptidyl-prolyl cis-trans isomerase FKBP1A (Homo sapiens, UniProt P62942); assay: Ability to inhibit peptidyl-prolyl isomerase (PPIase, or rotamase) activity of FK506 binding protein 12
Sequence (P62942 whole entry): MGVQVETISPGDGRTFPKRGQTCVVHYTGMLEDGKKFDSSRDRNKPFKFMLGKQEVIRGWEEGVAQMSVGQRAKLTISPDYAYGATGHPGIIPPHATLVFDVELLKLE

Row | Structure (SMILES) | Ki
6 | O=C(NCCc1ccccc1)C1CCCCN1S(=O)(=O)/C=C/c1ccccc1 (centres undefined) | 2.4 µM
7 | CCCCNC(=O)C1CCCN1C(=O)NC1CCCCC1 (centres undefined) | > 50 µM
8 | O=C(NCCCc1ccccc1)C1CCCN1C(=O)Nc1ccccc1 (centres undefined) | 1.4 µM
9 | O=C(NCc1ccccc1)C1CCCCN1S(=O)(=O)/C=C/c1ccccc1 (centres undefined) | 3.9 µM
10 | CCc1ccccc1NC(=O)N1CCCC1C(=O)NCCCc1ccccc1 (centres undefined) | > 50 µM
11 | O=C(NCCCc1ccccc1)C1CCCCN1S(=O)(=O)Cc1ccccc1 (centres undefined) | 2.2 µM
12 | O=C(NCc1ccccc1)C1CCCN1C(=O)NCc1ccccc1 (centres undefined) | > 50 µM
13 | O=C(NCCc1ccccc1)C1CCCN1S(=O)(=O)/C=C/c1ccccc1 (centres undefined) | 22 µM
14 | O=C(NCCCc1ccccc1)C1CCCN1S(=O)(=O)CCc1ccccc1 (centres undefined) | 13 µM
15 | O=C(NCCCc1ccccc1)C1CCCCN1S(=O)(=O)/C=C/c1ccccc1 (centres undefined) | 1.1 µM
16 | O=C(NCc1ccccc1)C1CCCCN1S(=O)(=O)Cc1ccccc1 (centres undefined) | 39 µM
17 | O=C(NCCc1ccccc1)C1CCCN1S(=O)(=O)CCc1ccccc1 (centres undefined) | 32 µM
18 | O=C(NCCCc1ccccc1)[C@@H]1CCCN1C(=O)NCc1ccccc1 | 4.2 µM
19 | O=C(NCc1ccccc1)C1CCCN1C(=O)Nc1ccccc1 (centres undefined) | 33 µM
20 | O=C(NCc1ccccc1)C1CCCN1C(=O)NC1CCCCC1 (centres undefined) | > 50 µM
21 | O=C(NCc1ccccc1)C1CCCCN1S(=O)(=O)c1ccccc1 (centres undefined) | 2.5 µM
22 | O=C(NCCCCc1ccccc1)[C@@H]1CCCCN1C(=O)NCc1ccccc1 | 1.6 µM
23 | O=C(NCCc1ccccc1)C1CCCN1C(=O)NC1CCCCC1 (centres undefined) | > 50 µM
24 | CCc1ccccc1NC(=O)N1CCCC1C(=O)NCCc1ccccc1 (centres undefined) | > 50 µM
25 | O=C(NCc1ccccc1)C1CCCN1S(=O)(=O)CCc1ccccc1 (centres undefined) | 22 µM
26 | O=C(NCCCc1ccccc1)C1CCCN1S(=O)(=O)/C=C/c1ccccc1 (centres undefined) | 1.3 µM
27 | O=C(NCCc1ccccc1)C1CCCN1C(=O)Nc1ccccc1 (centres undefined) | 30 µM
28 | CCCCNC(=O)C1CCCN1C(=O)NCc1ccccc1 (centres undefined) | > 50 µM
29 | O=C(NCc1ccccc1)C1CCCN1S(=O)(=O)/C=C/c1ccccc1 (centres undefined) | > 50 µM
30 | CCCCCCCCS(=O)(=O)N1CCCC1C(=O)NCc1ccccc1 (centres undefined) | > 50 µM
31 | O=C(NCCc1ccccc1)C1CCCN1C(=O)NCc1ccccc1 (centres undefined) | > 30 µM
32 | O=C(NCCCc1ccccc1)C1CCCN1C(=O)NC1CCCCC1 (centres undefined) | > 33 µM
33 | O=C(NCCc1ccccc1)C1CCCCN1S(=O)(=O)Cc1ccccc1 (centres undefined) | 13 µM
34 | CCc1ccccc1NC(=O)N1CCCC1C(=O)NCc1ccccc1 (centres undefined) | > 50 µM

More lines, now with the values ahead:

Row | Ki | Structure (SMILES)
35 | > 50 µM | CCCCCCCCS(=O)(=O)N1CCCC1C(=O)NCCc1ccccc1 (centres undefined)
36 | 42 µM | CCCCNC(=O)C1CCCN1S(=O)(=O)CCc1ccccc1 (centres undefined)
37 | > 50 µM | CCCCNC(=O)C1CCCCN1S(=O)(=O)Cc1ccccc1 (centres undefined)
38 | 5.4 µM | CCCCCCCCS(=O)(=O)N1CCCC1C(=O)NCCCc1ccccc1 (centres undefined)
39 | 1.5 µM | O=C(NCCc1ccccc1)C1CCCCN1S(=O)(=O)c1ccccc1 (centres undefined)
40 | 0.72 µM | O=C(NCCCc1ccccc1)C1CCCCN1S(=O)(=O)c1ccccc1 (centres undefined)
41 | > 50 µM | CCCCNC(=O)C1CCCN1S(=O)(=O)c1ccccc1 (centres undefined)
42 | 33 µM | Cc1ccc(S(=O)(=O)N2CCCC2C(=O)NCCc2ccccc2)cc1 (centres undefined)
43 | 1.6 µM | CCc1ccc(S(=O)(=O)N2CCCCC2C(=O)NCCc2ccccc2)cc1 (centres undefined)
44 | > 50 µM | Cc1ccc(S(=O)(=O)N2CCCC2C(=O)NCc2ccccc2)cc1 (centres undefined)
45 | > 50 µM | CCCCNC(=O)C1CCCN1S(=O)(=O)c1ccc(C)cc1 (centres undefined)
46 | 9.5 µM | O=C(NCCCc1ccccc1)C1CCCN1S(=O)(=O)c1ccccc1 (centres undefined)
47 | 37 µM | O=C(NCCc1ccccc1)C1CCCN1S(=O)(=O)c1ccccc1 (centres undefined)
48 | 7.6 µM | Cc1ccc(S(=O)(=O)N2CCCC2C(=O)NCCCc2ccccc2)cc1 (centres undefined)
49 | 2.8 µM | O=C(NCCCc1ccccc1)[C@@H]1CCCN1S(=O)(=O)Cc1ccccc1
50 | 4.7 µM | CCCCNC(=O)C1CCCCN1S(=O)(=O)c1ccccc1 (centres undefined)
51 | > 50 µM | CCCCNC(=O)C1CCCN1C(=O)Nc1ccccc1CC (centres undefined)
52 | 1.3 µM | CCc1ccc(S(=O)(=O)N2CCCCC2C(=O)NCc2ccccc2)cc1 (centres undefined)
53 | 1.2 µM | CCCCNC(=O)C1CCCCN1S(=O)(=O)c1ccc(CC)cc1 (centres undefined)
54 | 11 µM | CCCCNC(=O)C1CCCCN1S(=O)(=O)/C=C/c1ccccc1 (centres undefined)

From ChEMBL document CHEMBL1135119, “Solid-phase synthesis of FKBP12 inhibitors: N-sulfonyl and N-carbamoylprolyl/pipecolyl amides” (Bioorg Med Chem Lett, 2002)
